Laboratory results: PMC2732992 (Proteins, 2009)

How the values were obtained:
GluR2o S1S2 domain = GluR2o S1S2 domain (Rattus norvegicus, UniProt P19491, DEL528-650/S652T/V651G); assay: Inhibition of [3H]AMPA binding to GluR2o S1S2; settings: GluR2 S1S2 vs GluR3 S1S2, inhibition of [3H]AMPA binding
[1] = system: GluR2o / GluR3o expressed in insect cells; settings: cited from earlier work; for Affinity for GluR2o higher than for GluR3o: receptors expressed in insect cells

NC(Cc1onc(O)c1Cl)C(=O)O (stereo not shown) [Cl-HIBO, 4-chlorohomoibotenic acid]
Difference in affinity (IC50) between GluR2 S1S2 and GluR3 S1S2 (GluR2o S1S2 domain): ten-fold | Affinity of homomeric GluR2 greater than GluR3 ([1]; homomeric receptors, same expression system (insect cells)): approximately 100 fold

N[C@@H](Cn1cc(F)c(=O)[nH]c1=O)C(=O)O [fluorowillardiine]
Affinity for GluR2o higher than for GluR3o [1]: 10 fold

N[C@@H](Cn1ccc(=O)[nH]c1=O)C(=O)O [willardiine]
Affinity for GluR2o higher than for GluR3o [1]: 10 fold
